The record followed here is patent publication US11014895B2, “Heterocyclic urea compound, and drug composition and application thereof” (CHINA PHARMACEUTICAL UNIVERSITY, priority 2017, dated 2021).

In one assay the target is IDO1 enzyme (Homo sapiens, UniProt P14902). Nature of the assay: Determination of biochemical activity of IDO1 enzyme (absorbance at 320 nm). The settings on record: room temperature, 3 hours. The essentials:
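Enzyme and compound were reacted in sodium hydrogen phosphate buffer (pH 7-8) for 3 hours at room temperature. Absorbance at 320 nm gave inhibition rate, and IC50 was calculated from it.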

Assay [1] addresses T1, IDO1 enzyme in the Hela cell (Homo sapiens, UniProt P14902).
T1 construct: endogenous in cells; host or cells: HeLa cells stimulated with interferon γ (100 ng/ml)
Nature of the assay: Cell activity: interferon γ-stimulated Hela cells, absorbance of supernatant at 480 nm. Format: cell-based. Conditions: interferon γ 100 ng/ml, 72 hours. The essentials: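 HeLa cells treated with compound plus interferon γ (100 ng/ml final) and cultured 72 h at 37 °C. Supernatant treated with trichloroacetic acid 30 min at 50 °C, centrifuged, then mixed with 2% dimethylaminobenzaldehyde in acetic acid; absorbance read at 480 nm.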

Sequence of IDO1 enzyme (P14902 whole entry): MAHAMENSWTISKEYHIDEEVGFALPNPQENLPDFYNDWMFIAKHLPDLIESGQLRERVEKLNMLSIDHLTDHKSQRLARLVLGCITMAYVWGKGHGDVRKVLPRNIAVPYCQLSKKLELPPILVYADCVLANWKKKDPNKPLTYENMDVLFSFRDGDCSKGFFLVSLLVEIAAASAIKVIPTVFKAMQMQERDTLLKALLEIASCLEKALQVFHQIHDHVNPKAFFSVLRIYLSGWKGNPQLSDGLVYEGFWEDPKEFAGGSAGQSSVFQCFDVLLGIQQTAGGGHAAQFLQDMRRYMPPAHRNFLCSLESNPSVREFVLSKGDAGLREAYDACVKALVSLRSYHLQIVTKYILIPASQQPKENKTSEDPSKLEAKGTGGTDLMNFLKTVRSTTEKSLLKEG
T1 sequence (P14902 whole entry): as above

For orientation: IC50 means the point on the concentration scale where inhibition reaches its midpoint. A low value points to greater potency in that assay. On to `COc1ccc(NC(=N)Nc2conc2/C(=N/O)Nc2ccc(F)c(Cl)c2)cc1` [Embodiment 154, (Z)-1-(4-(N-(3-chloro-4-fluorophenyl)-N′-hydroxyaminoiminomethyl)-isoxazole-3-substituted)-4-(4-methoxyphenyl)guanidine], for which the IC50 (against IDO1 enzyme; in assay [1]) was 0.1 to 1 µM in each case.
On to `N=C(Nc1ccccc1)Nc1conc1/C(=N/O)Nc1ccc(F)c(Cl)c1` [Embodiment 155, (Z)-1-(4-(N-(3-chloro-4-fluorophenyl)-N′-hydroxyaminoiminomethyl)-isoxazole-3-substituted)-4-phenylguanidine], for which the IC50 (at IDO1 enzyme; in assay [1]) was 0.1 to 1 µM in each case.
Take `N=C(Nc1conc1/C(=N/O)Nc1ccc(F)c(Cl)c1)NC1CCCCC1` [Embodiment 156, (Z)-1-(4-(N-(3-chloro-4-fluorophenyl)-N′-hydroxyaminoiminomethyl)-isoxazole-3-substituted)-4-cyclohexylguanidine]: the IC50 (against IDO1 enzyme; in assay [1]) was 0.1 to 1 µM in each case.
For the compound `COc1ccc(NC(=N)Nc2nocc2/C(=N/O)Nc2ccc(F)c(Br)c2)cc1` [Embodiment 157, (Z)-1-(4-(N-(3-bromo-4-fluorophenyl)-N′-hydroxyaminoiminomethyl)-isoxazole-3-substituted)-3-(4-methoxyphenyl)guanidine], the IC50 (at IDO1 enzyme; in assay [1]) was 0.1 to 1 µM each time.
In the case of `N=C(Nc1ccccc1)Nc1nocc1/C(=N/O)Nc1ccc(F)c(Br)c1` [Embodiment 158, (Z)-1-(4-(N-(3-bromo-4-fluorophenyl)-N′-hydroxyaminoiminomethyl)-isoxazole-3-substituted)-3-phenylguanidine], the IC50 (against IDO1 enzyme; in assay [1]) was 0.1 to 1 µM throughout.
Consider `N=C(Nc1nocc1/C(=N/O)Nc1ccc(F)c(Br)c1)NC1CCCCC1` [Embodiment 159, (Z)-1-(4-(N-(3-bromo-4-fluorophenyl)-N′-hydroxyaminoiminomethyl)-isoxazole-3-substituted)-3-cyclohexylguanidine], for which the IC50 (against IDO1 enzyme; in assay [1]) was 0.1 to 1 µM throughout.
Turning to `COc1ccc(NC(=N)Nc2cocc2/C(=N/O)Nc2ccc(F)c(Br)c2)cc1` [Embodiment 160, (Z)-1-(4-(N-(3-bromo-4-fluorophenyl)-N′-hydroxyaminoiminomethyl)-furan-3-substituted)-3-(4-methoxyphenyl)guanidine], the IC50 (on IDO1 enzyme; in assay [1]) was 0.1 to 1 µM each time.
Regarding `N=C(Nc1ccccc1)Nc1cocc1/C(=N/O)Nc1ccc(F)c(Br)c1` [Embodiment 161, (Z)-1-(4-(N-(3-bromo-4-fluorophenyl)-N′-hydroxyaminoiminomethyl)-furan-3-substituted)-3-phenylguanidine], the IC50 (on IDO1 enzyme; in assay [1]) was 0.1 to 1 µM in each case.
For the compound `N=C(Nc1cocc1/C(=N/O)Nc1ccc(F)c(Br)c1)NC1CCCCC1` [Embodiment 162, (Z)-1-(4-(N-(3-bromo-4-fluorophenyl)-N′-hydroxyaminoiminomethyl)-furan-3-substituted)-3-cyclohexylguanidine], the IC50 (on IDO1 enzyme; in assay [1]) was 0.1 to 1 µM in each case.
Regarding “(Z)-1-(4-(N-(3-bromo-4-fluorophenyl)-N′-hydroxyaminoiminomethyl)-isoxazole-3-substituted)-3-phenylurea [Embodiment 81]”, the IC50 (at IDO1 enzyme; in assay [1]) was 0.1 to 1 µM each time.
